# Assay results reported in patent publication US9624278B2, “Protein complex comprising MCM8 and MCM9 proteins and their use” (CENTRE NATIONAL DE LA RECHERCHE SCIENTIFIQUE, priority 2011, dated 2017).
# Legend:
# Assay type in all cases: cell-based, mouse
# [1] = system: MCM9-deficient MEF cells; assay: BrdU incorporation and growth of MCM9-deficient MEF cells treated 24 h with aphidicolin and released
# Method: (§1) In Xenopus egg extracts, MCM8 and 9 were found essential for efficient DNA replication^4 5. However, in in-vitro systems derived from Xenopus eggs, DNA replication efficiency is at its maximum, as all potential DNA replication origins are activated, leading to an unusual short inter-origin space and an accelerated S phase (less than 20 min). A deficiency in DNA replication could be therefore rapidly detected. In somatic cells, S phase stands for 6-10 hrs, including during mouse early development (Wowlett and Bolton, 1985), J. Embryol. Exp. Morph, 87, 175; Ferreira and Carmon Forseca, 1997, J. Cell Sci, 11, 889). Therefore, defects in DNA replication can be compensated by induction of the store of dormant origins and/or a higher rate of replication. To investigate this possibility, and reveal possible DNA replication weaknesses in KO MEFs the Inventors first performed DNA fiber stretching^24, using a double pulse-labeling method, applying first a CldU pulse (“red” pulse), followed a second IdU pulse (“green” pulse), as in FIG. 29. Replication fork arrests can be detected by measuring the length of the second pulse, which becomes shorter if the fork is blocked or slowing down. […] To reveal whether MCM9 KO cells were more sensitive to replication stress, the Inventors treated MEF cells for 24 hrs with low concentration (1 μM) of aphidicolin (APH), an inhibitor of DNA polymerases that slows down or blocks replication forks. First, the Inventors quantified the global efficiency of DNA replication by measuring the proportion of cells incorporating BrdU. […] The Inventors concluded that KO cells were highly sensitive to replication fork inhibition. When cells were further released from APH treatment, control cells re-establish the original BrdU-intensity within the first 3 hours (FIG. 30, FIGS. 31A-T). […] The Inventors conclude that MCM9 KO cells are highly sensitive to replication stress, and unable to rescue arrested forks, resulting in growth arrest. […]
# [2] = system: MCM9 and MCM8; assay: Western blot of WT MEF cells exposed for 24 h to APH; conditions: WT MEFs treated by APH
# Method: FIG. 34B represents a western blot analysis of WT-(lanes A and C) and MCM9-deficient-(lanes B and D) MEF cells exposed (lanes C and D) or not (lanes A and B) for 24 h to APH for MCM9 (panel 1), MCM8 (panel 2), Chk1-P (panel 3), Chk2 (panel 4) and GAPDH (panel 5) as loading control. […] Rad51 is an essential protein of the homologous recombination pathway that is the main repair mechanisms of DSBs caused by replication fork arrest^25,12. […] For chromatin isolation, MEF cells were harvested, washed with PBS, frozen at −80° C. or directly lysed in CSK buffer (150 mM NaCl, 10 mM HEPES pH 7.5, 300 mM Sucrose, 1 mM MgCl2, 1 mM EDTA, 1 mM ATP.MgCl2, 1 mM DTT, 0.2% Triton X-100, Phosphatase-inhibitors (Calbiochem), protease-inhibitors Leupeptin, Aprotinin and Pepstatin at a concentration of 10 μg/ml) for 10 min on ice in a volume of 1 μl buffer for 2000 cells. For whole cell extract (“WCE”), a sample of the lysate was mixed with two times Laemli SDS buffer and boiled. The lysate was centrifuged at 3′800 g for 5 min at 4° C., the pellet homogenized again in CSK buffer, extracted again for 5 min on ice and centrifuged again and finally solubilized in two times Laemli SDS buffer (1 μl buffer for 5000 cells).
# [3] = system: WT MEF cells; assay: BrdU incorporation and growth of WT MEF cells treated 24 h with aphidicolin and released
# Method: as §1
smiles,measurement,setting,value
"C[C@@]1(CO)[C@H](O)CC[C@@]2(C)[C@H]1CC[C@H]1C[C@@H]3C[C@@]12CC[C@]3(O)CO [APH, aphidicolin]",cell growth after the release from APH,"[1]; MCM9- (as well as MCM8-) KO MEF cells, 24 h APH then released without drug",died or stopped dividing
same,BrdU-labeled nuclei after the APH treatment,"[1]; MCM9-deficient MEF cells, 1 μM aphidicolin, 24 hrs",nearly no BrdU-labeled nuclei
same,time until percentage of BrdU-positive cells comparable to before the APH treatment,"[1]; surviving MCM9-deficient KO MEF cells, released from 24 h APH treatment",48 h
same,expression of MCM9 and MCM8 at the protein level,[2],stronger expression
same,BrdU signal in nuclei after the APH treatment,"[3]; WT MEF cells, 1 μM aphidicolin, 24 hrs",strongly reduced
same,cell growth after the release from APH,"[3]; WT MEF cells, 24 h APH then released without drug",resumed growth soon
same,time to re-establish the original BrdU-intensity after release from APH,"[3]; control (WT) MEF cells, released from 24 h APH treatment",≤ 3 h
